Results reported in ChEMBL document CHEMBL3734743, “Potent complement C3a receptor agonists derived from oxazole amino acids: Structure-activity relationships” (Bioorg Med Chem Lett, 2015).
Activity calls are given as the source filed them. The calls are words filed in the database; no cut-off is given here.

How the values were obtained:
[1] = molecular target: T1, C3a anaphylatoxin chemotactic receptor (Homo sapiens) (UniProt Q16581); test: Displacement of [125I]-C3a from C3aR in human MDM cells at 20 uM after 60 mins by microbeta scintillation counting analysis; assay type: cell-based
T1 sequence (whole entry): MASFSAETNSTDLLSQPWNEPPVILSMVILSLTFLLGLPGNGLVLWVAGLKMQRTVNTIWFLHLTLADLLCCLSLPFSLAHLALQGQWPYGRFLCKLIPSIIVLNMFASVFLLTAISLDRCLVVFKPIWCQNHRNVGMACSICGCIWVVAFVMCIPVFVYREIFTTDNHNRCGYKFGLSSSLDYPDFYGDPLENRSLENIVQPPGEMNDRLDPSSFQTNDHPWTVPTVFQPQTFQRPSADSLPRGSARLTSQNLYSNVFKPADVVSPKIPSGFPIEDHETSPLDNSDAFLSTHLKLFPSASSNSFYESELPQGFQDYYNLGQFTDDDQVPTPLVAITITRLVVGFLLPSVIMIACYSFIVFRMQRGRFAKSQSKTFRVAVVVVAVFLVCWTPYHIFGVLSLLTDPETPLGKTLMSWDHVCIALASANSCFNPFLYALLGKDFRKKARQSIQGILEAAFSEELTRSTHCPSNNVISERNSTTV

[2] = molecular target: T2, C5a anaphylatoxin chemotactic receptor 1 (Homo sapiens) (UniProt P21730); test: Displacement of [125I]-C5a from C5aR in human MDM cells at 20 uM after 60 mins by microbeta scintillation counting analysis; assay type: cell-based
T2 sequence (whole entry): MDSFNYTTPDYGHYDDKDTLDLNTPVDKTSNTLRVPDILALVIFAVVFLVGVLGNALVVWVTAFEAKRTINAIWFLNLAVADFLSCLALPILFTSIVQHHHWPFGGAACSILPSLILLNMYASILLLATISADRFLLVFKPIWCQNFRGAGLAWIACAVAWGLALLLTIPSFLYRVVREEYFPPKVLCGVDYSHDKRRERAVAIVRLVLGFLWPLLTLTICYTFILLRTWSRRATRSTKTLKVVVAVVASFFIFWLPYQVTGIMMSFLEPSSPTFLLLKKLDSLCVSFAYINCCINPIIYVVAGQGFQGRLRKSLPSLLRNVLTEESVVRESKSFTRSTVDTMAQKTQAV

[3] = molecular target: T1, C3a anaphylatoxin chemotactic receptor (Homo sapiens); test: Agonist activity at C3aR in human MDM cells assessed as inhibition of C3a-induced Ca2+ response at 10 uM measured for 60 secs by fluorescence assay relative to 100 nM C3a; assay type: functional, cell-based
[4] = molecular target: T3, C3a anaphylatoxin chemotactic receptor (Homo sapiens, UniProt Q16581); test: Displacement of [125I]-C3a from C3aR in human MDM cells after 60 mins by microbeta scintillation counting analysis; assay type: cell-based
T3 sequence (Q16581 whole entry): T1 sequence (whole entry)

[5] = molecular target: T1, C3a anaphylatoxin chemotactic receptor (Homo sapiens); test: Agonist activity at C3aR in human MDM cells assessed as intracellular calcium efflux at 1 uM measured for 60 secs by fluorescence based receptor desensitization assay; assay type: functional, cell-based
[6] = molecular target: T3, C3a anaphylatoxin chemotactic receptor; test: Agonist activity at C3aR in human MDM cells assessed as inhibition of C3a-induced Ca2+ response measured for 60 secs by fluorescence assay; assay type: functional, cell-based

Row | Structure (SMILES) | inhibition [1] | inhibition [2] | inhibition [3] | IC50 [4] | Activity [5] | EC50 [6]
1 | Cc1oc([C@H](CC(C)C)NC(=O)CC(C)(C)C)nc1C(=O)N[C@@H](CCCNC(=N)N)C(=O)O | 44% | inactive | 70% | – | – | –
2 | Cc1oc([C@H](CC(C)C)NC(=O)c2ccncc2)nc1C(=O)N[C@@H](CCCNC(=N)N)C(=O)O | inactive | inactive | 109% | – | – | –
3 | CC[C@H](C)[C@H](NC(=O)c1ccccc1)c1nc(C(=O)N[C@@H](CCCNC(=N)N)C(=O)O)co1 | – | inactive | – | 27 nM | – | –
4 | CC[C@H](C)[C@H](NC(=O)C(c1ccccc1)c1ccccc1)c1nc(C(=O)N[C@@H](CCCNC(=N)N)C(=O)O)co1 | – | inactive | – | 137 nM | – | –
5 | CC(C)C[C@H](NC(=O)C1c2ccccc2-c2ccccc21)c1nc(C(=O)N[C@@H](CCCNC(=N)N)C(=O)O)co1 | – | inactive | – | 142 nM | – | –
6 | COc1ccc(OC)c(CC(=O)N[C@@H](CC(C)C)c2nc(C(=O)N[C@@H](CCCNC(=N)N)C(=O)O)c(C)o2)c1 | 42% | inactive | 69% | – | – | –
7 | Cc1oc([C@H](CC(C)C)NC(=O)c2cc3ccccc3o2)nc1C(=O)N[C@@H](CCCNC(=N)N)C(=O)O | 19% | inactive | 84% | – | – | –
8 | Cc1oc([C@H](CC(C)C)NC(=O)S(=O)(=O)c2ccccc2)nc1C(=O)N[C@@H](CCCNC(=N)N)C(=O)O | 44% | inactive | 103% | – | – | –
9 | Cc1oc([C@H](CC(C)C)NC(=O)c2ccc(/N=N/c3ccccc3)cc2)nc1C(=O)N[C@@H](CCCNC(=N)N)C(=O)O | 49% | inactive | 48% | – | – | –
10 | CC[C@H](C)[C@H](NC(=O)c1ccc(OC)cc1OC)c1nc(C(=O)N[C@@H](CCCNC(=N)N)C(=O)O)co1 | – | inactive | – | 870 nM | – | –
11 | CC[C@H](C)[C@H](NC(=O)c1cccc(OC)c1OC)c1nc(C(=O)N[C@@H](CCCNC(=N)N)C(=O)O)co1 | – | inactive | – | 710 nM | – | –
12 | Cc1oc([C@H](CC(C)C)NC(=O)c2cccnc2)nc1C(=O)N[C@@H](CCCNC(=N)N)C(=O)O | 29% | inactive | 68% | – | – | –
13 | CC[C@H](C)[C@H](NC(=O)c1ccc(N(C)C)cc1)c1nc(C(=O)N[C@@H](CCCNC(=N)N)C(=O)O)co1 | – | inactive | – | 800 nM | – | –
14 | Cc1oc([C@H](CC(C)C)NC(=O)NCc2ccccc2)nc1C(=O)N[C@@H](CCCNC(=N)N)C(=O)O | 61% | inactive | 50% | – | – | –
15 | CC(C)Cc1ccc(C(C)C(=O)N[C@@H](CC(C)C)c2nc(C(=O)N[C@@H](CCCNC(=N)N)C(=O)O)co2)cc1 (stereo not given in full) | – | inactive | – | 1030 nM | – | –
16 | CC[C@H](C)[C@H](NC(=O)c1cncc(Br)c1)c1nc(C(=O)N[C@@H](CCCNC(=N)N)C(=O)O)co1 | – | inactive | – | 5 nM | inactive | –
17 | CC[C@H](C)[C@H](NC(=O)CCC(=O)c1ccc(-c2ccccc2)cc1)c1nc(C(=O)N[C@@H](CCCNC(=N)N)C(=O)O)co1 | – | inactive | – | 150 nM | inactive | –
18 | CC[C@H](C)[C@H](NC(=O)c1ccc(C(=O)c2ccccc2)cc1)c1nc(C(=O)N[C@@H](CCCNC(=N)N)C(=O)O)co1 | – | inactive | – | 157 nM | – | –
19 | CC(C)C[C@H](NC(=O)Cc1ccc(F)cc1)c1nc(C(=O)N[C@@H](CCCNC(=N)N)C(=O)O)co1 | – | inactive | – | 102 nM | inactive | –
20 | Cc1oc([C@H](CC(C)C)NC(=O)c2cncc(Br)c2)nc1C(=O)N[C@@H](CCCNC(=N)N)C(=O)O | inactive | inactive | 105% | – | – | –
21 | Cc1oc([C@H](CC(C)C)NC(=O)c2cc3ccccc3s2)nc1C(=O)N[C@@H](CCCNC(=N)N)C(=O)O | 14% | inactive | 62% | – | – | –
22 | CC(C)C[C@H](NC(=O)C(C)c1ccc(N2Cc3ccccc3C2=O)cc1)c1nc(C(=O)N[C@@H](CCCNC(=N)N)C(=O)O)co1 (stereo not given in full) | – | inactive | – | 450 nM | – | –

Row | Structure (SMILES) | inhibition [1] | inhibition [2] | inhibition [3] | IC50 [4] | Activity [5] | EC50 [6]
23 | Cc1oc([C@H](CC(C)C)NC(=O)c2cc3ccccc3[nH]2)nc1C(=O)N[C@@H](CCCNC(=N)N)C(=O)O | 26% | inactive | 56% | – | – | –
24 | COc1ccccc1CC(=O)N[C@@H](CC(C)C)c1nc(C(=O)N[C@@H](CCCNC(=N)N)C(=O)O)c(C)o1 | 43% | inactive | 81% | – | – | –
25 | Cc1oc([C@H](CC(C)C)NC(=O)C2CCCCC2)nc1C(=O)N[C@@H](CCCNC(=N)N)C(=O)O | 39% | inactive | 107% | – | – | –
26 | Cc1oc([C@H](CC(C)C)NC(=O)c2ccc(Oc3ccccc3)cc2)nc1C(=O)N[C@@H](CCCNC(=N)N)C(=O)O | 32% | inactive | 68% | – | – | –
27 | COc1ccc(CCC(=O)N[C@@H](CC(C)C)c2nc(C(=O)N[C@@H](CCCNC(=N)N)C(=O)O)c(C)o2)cc1 | 44% | inactive | 44% | – | – | –
28 | Cc1oc([C@H](CC(C)C)NC(=O)CCC(C)C)nc1C(=O)N[C@@H](CCCNC(=N)N)C(=O)O | inactive | inactive | 95% | – | – | –
29 | COc1ccc(CC(=O)N[C@@H](CC(C)C)c2nc(C(=O)N[C@@H](CCCNC(=N)N)C(=O)O)c(C)o2)cc1 | 40% | inactive | 26% | – | – | –
30 | CC[C@H](C)[C@H](NC(=O)OC(C)(C)C)c1nc(C(=O)N[C@@H](CCCNC(=N)N)C(=O)O)co1 | – | inactive | – | – | inactive | –
31 | CC[C@H](C)[C@H](NC(=O)c1ccc2ccccc2n1)c1nc(C(=O)N[C@@H](CCCNC(=N)N)C(=O)O)co1 | – | inactive | – | 123 nM | inactive | 41 nM
32 | CC[C@H](C)[C@H](NC(=O)C1(C(C)C)C=CCC=C1)c1nc(C(=O)N[C@@H](CCCNC(=N)N)C(=O)O)co1 | – | inactive | – | 754 nM | – | 740 nM
33 | COc1ccc(CC(=O)N[C@@H](CC(C)C)c2nc(C(=O)N[C@@H](CCCNC(=N)N)C(=O)O)c(C)o2)cc1OC | 65% | inactive | 67% | – | – | –
34 | Cc1oc([C@H](CC(C)C)NC(=O)c2ccc(C(F)(F)F)cc2)nc1C(=O)N[C@@H](CCCNC(=N)N)C(=O)O | 61% | inactive | 50% | – | – | –
35 | Cc1ccc(NC(=O)N[C@@H](CC(C)C)c2nc(C(=O)N[C@@H](CCCNC(=N)N)C(=O)O)c(C)o2)cc1 | inactive | – | 64% | – | – | –
36 | CC[C@H](C)[C@H](NC(=O)C1CCCc2ccccc21)c1nc(C(=O)N[C@@H](CCCNC(=N)N)C(=O)O)co1 (stereo not given in full) | – | inactive | – | 104 nM | – | –
37 | CC[C@H](C)[C@H](NC(=O)C(C)c1ccc2cc(OC)ccc2c1)c1nc(C(=O)N[C@@H](CCCNC(=N)N)C(=O)O)co1 (stereo not given in full) | – | inactive | – | – | – | –
38 | COc1cccc(C(=O)N[C@@H](CC(C)C)c2nc(C(=O)N[C@@H](CCCNC(=N)N)C(=O)O)c(C)o2)c1 | inactive | inactive | 134% | – | – | –
39 | CC[C@H](C)[C@H](NC(=O)Cc1c[nH]c2ccccc12)c1nc(C(=O)N[C@@H](CCCNC(=N)N)C(=O)O)co1 | – | inactive | – | 152 nM | – | –
40 | COc1cccc(CC(=O)N[C@@H](CC(C)C)c2nc(C(=O)N[C@@H](CCCNC(=N)N)C(=O)O)c(C)o2)c1 | 41% | inactive | 87% | – | – | –
41 | Cc1oc([C@H](CC(C)C)NC(=O)CC2CCCCC2)nc1C(=O)N[C@@H](CCCNC(=N)N)C(=O)O | 26% | inactive | 69% | – | – | –
42 | CC[C@H](C)[C@H](NC(=O)c1ccccc1Oc1ccccc1)c1nc(C(=O)N[C@@H](CCCNC(=N)N)C(=O)O)co1 | – | inactive | – | 55 nM | Active | –
43 | Cc1oc([C@H](CC(C)C)NC(=O)c2ccccn2)nc1C(=O)N[C@@H](CCCNC(=N)N)C(=O)O | 31% | inactive | 77% | – | – | –
